Measurements taken from US6586604B2, “Tricyclic amine derivatives” (Daiichi Pharmaceutical Co., Ltd., priority 1996, dated 2003).
Converted amounts (≈) assume the structure as drawn.

Columns and labels:
[1] = system: Ps. Maltophilia, 11D-1275; experiment: Antimicrobial activity (MIC), standard method of the Japan Chemotherapeutic Society; type: cell-based; details: for MIC: Stenotrophomonas maltophilia, read-out: minimum inhibitory concentration (MIC)
Description: (§1) The antimicrobial activity of the compounds according to the present invention was determined in accordance with the standard method specified by the Japan Chemotherapeutic Society.

[2] = system: Str. Faecalis, ATCC-19433; experiment: as above; type: cell-based; details: for MIC: Enterococcus faecalis, ATCC19433, read-out: minimum inhibitory concentration (MIC)
Description: as §1

S. pneumoniae, J24 = experiment: as above; type: cell-based; details: for MIC: Streptococcus pneumoniae, read-out: minimum inhibitory concentration (MIC)
Description: as §1

Ps. Aeruginosa, 32104 = experiment: as above; type: cell-based; details: for MIC: Pseudomonas aeruginosa, read-out: minimum inhibitory concentration (MIC)
Description: as §1

Pr. vulgaris, 08601 = experiment: as above; type: cell-based; details: for MIC: Proteus vulgaris, read-out: minimum inhibitory concentration (MIC)
Description: as §1

Pr. Mirabilis, IFO-3849 = experiment: as above; type: cell-based; details: for MIC: Proteus mirabilis, IFO3849, read-out: minimum inhibitory concentration (MIC)
Description: as §1

S. flexneli, 2A 5503 = experiment: as above; type: cell-based; details: for MIC: read-out: minimum inhibitory concentration (MIC); for minimum inhibitory concentration (MIC): S. flexneli, 2A 5503
Description: as §1

Ps. Aeruginosa, 32121 = experiment: as above; type: cell-based; details: for MIC: Pseudomonas aeruginosa, read-out: minimum inhibitory concentration (MIC)
Description: as §1

S. epidermidis, 56500 = experiment: as above; type: cell-based; details: for MIC: Staphylococcus epidermidis, read-out: minimum inhibitory concentration (MIC)
Description: as §1

S. aureus, 870307 = experiment: as above; type: cell-based; details: for MIC: Staphylococcus aureus, read-out: minimum inhibitory concentration (MIC)
Description: as §1

Str. Pyogenes, G-36 = experiment: as above; type: cell-based; details: for MIC: Streptococcus pyogenes, read-out: minimum inhibitory concentration (MIC)
Description: as §1

Ser. Marcescens, 10100 = experiment: as above; type: cell-based; details: for MIC: Serratia marcescens, read-out: minimum inhibitory concentration (MIC)
Description: as §1

E. coil, NIHJ = experiment: as above; type: cell-based; details: for MIC: read-out: minimum inhibitory concentration (MIC)
Description: as §1

S. aureaus, 209P = experiment: as above; type: cell-based; details: for MIC: read-out: minimum inhibitory concentration (MIC)
Description: as §1

Nc1c(F)c(N2CC3CC4CC4(N)C3C2)c(F)c2c1c(=O)c(C(=O)O)cn2C1CC1 (stereo not drawn) [Example 1, 5-Amino-7-(1-amino-4-azatricyclo[6.1.0.0^2,6]-nonan-4-yl)-1-cyclopropyl-6,8-difluoro-1,4-dihydro-4-oxoquinoline-3-carboxylic Acid]
melting point: 197 to 202 °C (dec.)
MIC [1]: 0.05 µg/mL (≈ 0.12 µM)
MIC [2]: 0.025 µg/mL (≈ 0.06 µM)
MIC (S. pneumoniae, J24): ≤ 3 ng/mL
MIC (Ps. Aeruginosa, 32104): 0.2 µg/mL (≈ 0.48 µM)
MIC (Pr. vulgaris, 08601): 0.1 µg/mL (≈ 0.24 µM)
MIC (Pr. Mirabilis, IFO-3849): 0.05 µg/mL (≈ 0.12 µM)
MIC (S. flexneli, 2A 5503): ≤ 3 ng/mL
MIC (Ps. Aeruginosa, 32121): 0.2 µg/mL (≈ 0.48 µM)
MIC (S. epidermidis, 56500): 6 ng/mL (≈ 0.0144 µM)
MIC (S. aureus, 870307): 0.1 µg/mL (≈ 0.24 µM)
MIC (Str. Pyogenes, G-36): 6 ng/mL (≈ 0.0144 µM)
MIC (Ser. Marcescens, 10100): 0.1 µg/mL (≈ 0.24 µM)
MIC (E. coil, NIHJ): ≤ 3 ng/mL
MIC (S. aureaus, 209P): ≤ 3 ng/mL

C[C@H]1COc2c(N3C[C@H]4CC5C[C@]5(N)[C@H]4C3)c(F)cc3c(=O)c(C(=O)O)cn1c23 (stereo partly drawn) [Example 2, 10-{(1R,2R,6S)-1-Amino-4-azatricyclo[6.1.0.0^2,6]nonan-4-yl}-9-fluoro-2,3-dihydro-3-(S)-methyl-7-oxo-7H-pyrido[1.2.3-de][1,4]benzoxazine-6-carboxylic Acid]
minimum inhibitory concentration (MIC) [1]: 0.20 µg/mL (≈ 0.501 µM)
minimum inhibitory concentration (MIC) [2]: 0.05 µg/mL (≈ 0.125 µM)
minimum inhibitory concentration (MIC) (S. pneumoniae, J24): 0.013 µg/mL (≈ 0.0325 µM)
minimum inhibitory concentration (MIC) (Ps. Aeruginosa, 32104): 0.20 µg/mL (≈ 0.501 µM)
minimum inhibitory concentration (MIC) (Pr. vulgaris, 08601): 0.025 µg/mL (≈ 0.0626 µM)
minimum inhibitory concentration (MIC) (Pr. Mirabilis, IFO-3849): 0.10 µg/mL (≈ 0.25 µM)
minimum inhibitory concentration (MIC) (S. flexneli, 2A 5503): 6 ng/mL (≈ 0.015 µM)
minimum inhibitory concentration (MIC) (Ps. Aeruginosa, 32121): 0.05 µg/mL (≈ 0.125 µM)
minimum inhibitory concentration (MIC) (S. epidermidis, 56500): 0.025 µg/mL (≈ 0.0626 µM)
minimum inhibitory concentration (MIC) (S. aureus, 870307): 0.20 µg/mL (≈ 0.501 µM)
minimum inhibitory concentration (MIC) (Str. Pyogenes, G-36): 0.013 µg/mL (≈ 0.0325 µM)
minimum inhibitory concentration (MIC) (Ser. Marcescens, 10100): 0.05 µg/mL (≈ 0.125 µM)
minimum inhibitory concentration (MIC) (E. coil, NIHJ): ≦0.003 μg/ml
minimum inhibitory concentration (MIC) (S. aureaus, 209P): 6 ng/mL (≈ 0.015 µM)

COc1c(N2CC3CC4CC4(N)C3C2)c(F)cc2c(=O)c(C(=O)O)cn([C@@H]3C[C@@H]3F)c12 (stereo partly drawn) [Example 5, 7-{1-Amino-4-azatricyclo[6.1.0.0^2,6]nonan-4-yl}-6-fluoro-1-[2-(S)-fluoro-1-(R)-cyclopropyl]-1,4-dihydro-8-methoxy-4-oxoquinoline-3-carboxylic Acid]
melting point: 146 to 159 °C (dec.)
MIC [1]: 0.05 µg/mL (≈ 0.116 µM)
MIC [2]: 0.025 µg/mL (≈ 0.0579 µM)
MIC (S. pneumoniae, J24): ≤ 3 ng/mL
MIC (Ps. Aeruginosa, 32104): 0.1 µg/mL (≈ 0.232 µM)
MIC (Pr. vulgaris, 08601): 0.006 µg/mL (≈ 0.0139 µM)
MIC (Pr. Mirabilis, IFO-3849): ≤ 0.003 µg/mL
MIC (S. flexneli, 2A 5503): ≤ 3 ng/mL
MIC (Ps. Aeruginosa, 32121): 0.05 µg/mL (≈ 0.116 µM)
MIC (S. epidermidis, 56500): ≤ 3 ng/mL
MIC (S. aureus, 870307): 0.013 µg/mL (≈ 0.0301 µM)
MIC (Str. Pyogenes, G-36): ≤ 3 ng/mL
MIC (Ser. Marcescens, 10100): 0.05 µg/mL (≈ 0.116 µM)
MIC (E. coil, NIHJ): ≤ 3 ng/mL
MIC (S. aureaus, 209P): ≤ 3 ng/mL

Cc1c(N2CC3CC4CC4(N)C3C2)c(F)c(N)c2c(=O)c(C(=O)O)cn([C@@H]3C[C@@H]3F)c12 (stereo partly drawn) [Example 6, 5-Amino-7-{1-amino-4-azatricyclo[6.1.0.0^2,6]nonan-4-yl}-6-fluoro-1-[2-(S)-fluoro-1-(R)-cyclopropyl]-1,4-dihydro-8-methyl-4-oxoquinoline-4-carboxylic Acid]
minimum inhibitory concentration (MIC) [1]: 0.025 µg/mL (≈ 0.0581 µM)
minimum inhibitory concentration (MIC) [2]: 0.013 µg/mL (≈ 0.0302 µM)
minimum inhibitory concentration (MIC) (S. pneumoniae, J24): ≦0.003 μg/ml
minimum inhibitory concentration (MIC) (Ps. Aeruginosa, 32104): 0.10 µg/mL (≈ 0.232 µM)
minimum inhibitory concentration (MIC) (Pr. vulgaris, 08601): 0.025 µg/mL (≈ 0.0581 µM)
minimum inhibitory concentration (MIC) (Pr. Mirabilis, IFO-3849): 0.025 µg/mL (≈ 0.0581 µM)
minimum inhibitory concentration (MIC) (S. flexneli, 2A 5503): ≦0.003 μg/ml
minimum inhibitory concentration (MIC) (Ps. Aeruginosa, 32121): 0.025 µg/mL (≈ 0.0581 µM)
minimum inhibitory concentration (MIC) (S. epidermidis, 56500): ≦0.003 μg/ml
minimum inhibitory concentration (MIC) (S. aureus, 870307): 0.05 µg/mL (≈ 0.116 µM)
minimum inhibitory concentration (MIC) (Str. Pyogenes, G-36): ≦0.003 μg/ml
minimum inhibitory concentration (MIC) (Ser. Marcescens, 10100): 0.05 µg/mL (≈ 0.116 µM)
minimum inhibitory concentration (MIC) (E. coil, NIHJ): ≦0.003 μg/ml
minimum inhibitory concentration (MIC) (S. aureaus, 209P): ≦0.003 μg/ml

Cc1c(N2CC3CC4CC4(N)C3C2)c(F)cc2c(=O)c(C(=O)O)cn([C@@H]3C[C@@H]3F)c12 (stereo partly drawn) [Example 7, 7-(1-Amino-4-azabicyclo[6.1.0.0^2,6]nonan-4-yl)-6-fluoro-1-[2-(S)-fluoro-1-(R)-cyclopropyl]-8-methyl-1,4-dihydro-4-oxoquinoline-3-carboxylic Acid]
minimum inhibitory concentration (MIC) [1]: 0.025 µg/mL (≈ 0.0602 µM)
minimum inhibitory concentration (MIC) [2]: 0.013 µg/mL (≈ 0.0313 µM)
minimum inhibitory concentration (MIC) (S. pneumoniae, J24): ≦0.003 μg/ml
minimum inhibitory concentration (MIC) (Ps. Aeruginosa, 32104): 0.05 µg/mL (≈ 0.12 µM)
minimum inhibitory concentration (MIC) (Pr. vulgaris, 08601): ≦0.003 μg/ml
minimum inhibitory concentration (MIC) (Pr. Mirabilis, IFO-3849): 0.013 µg/mL (≈ 0.0313 µM)
minimum inhibitory concentration (MIC) (S. flexneli, 2A 5503): ≦0.003 μg/ml
minimum inhibitory concentration (MIC) (Ps. Aeruginosa, 32121): 0.025 µg/mL (≈ 0.0602 µM)
minimum inhibitory concentration (MIC) (S. epidermidis, 56500): ≦0.003 μg/ml
minimum inhibitory concentration (MIC) (S. aureus, 870307): 0.013 µg/mL (≈ 0.0313 µM)
minimum inhibitory concentration (MIC) (Str. Pyogenes, G-36): ≦0.003 μg/ml
minimum inhibitory concentration (MIC) (Ser. Marcescens, 10100): 0.025 µg/mL (≈ 0.0602 µM)
minimum inhibitory concentration (MIC) (E. coil, NIHJ): ≦0.003 μg/ml
minimum inhibitory concentration (MIC) (S. aureaus, 209P): ≦0.003 μg/ml
